Data from patent US20210213097A1, “PEPTIDE INTERACTING WITH TOLL-LIKE RECEPTOR 2 AND THE COMPOSITION COMPRISING THE SAME” (NATIONAL TAIPEI UNIVERSITY OF TECHNOLOGY, priority 2020, published 2021).
“Also recorded” adds a separate entry of the source.

How the values were obtained:
zebra fish [1] = assay: Treatment of obesity in zebra fish, Example 3: body weight and glucose; format: in vivo; conditions: 0.03 μg/day/fish
Description: Zebra fish has been for a long time used as a model of obesity in many reports (Hasumura et al. Nutrition & Metabolism (2012); […] et al. Nutrition & Metabolism (2011); Oka et al. BMC Physiology (2010); Shimada et al. Nutrition & Metabolism (2015); Meguro et al. Scientific Reports (2019); Montalbano et al. Endocrine (2018); Yang et al. Cancer (2019)), which is also used herein as the subject of treatment of obesity with the peptides as disclosed herein. All peptides used in the present example were purified through CHT beads to remove endotoxin. LAL assay was further conducted and it was confirmed that the residue of endotoxin was under 0.25 EU/ml. Zebra fish was bred in 25° C. water (pH 6.5-7.5, conductivity 250-750 S·m^-1, NH3<0.25 ppm, NO2<0.25 ppm, NO3<0.5 ppm) and was fed with normal diet bid. (brine shrimp). Each group of experimentation comprises 10 zebra fish (n=10). The gavage feeding of Zebra fish follows the protocol disclosed in Collymore et al. (Journal of Visualized Experiment (2013)). During 13 days of experimentation, the zebra fish were fed once a day with the peptide fragments as disclosed herein in a 1× dose of 0.03 μg/day/fish. The weight of zebra fish was measured respectively on day 0, 1, 3, 6, 9, 12 and 13. In the present example, five groups of zebra fish were administered with the peptides as disclosed herein: […]

[2] = test system: gene expression of MPX, IL10, CD86, and IL4; assay: RT-qPCR of gene expression in zebra fish treated with peptide, Example 3; format: in vivo; conditions: Day 13, FIG. 4
Protocol: Y axis (-ΔΔCT) represents the difference in the threshold cycle of amplification. **: P<0.01; ****: P<0.0001. Further, the RT(reversed-transcription)-qPCR was conducted to detect the quantity of gene expression of MPX, IL10, CD86, and IL4 in the zebra fish treated with AMSS according to the present example. […] (FIG. 4)

human TLR2 = molecular target: T1, human TLR2 (Homo sapiens, UniProt O60603); assay: TLR induction screening in recombinant HEK-293 with NF-KB driven SEAP reporter; format: cell-based; conditions: final concentration 10 μg/ml; recombinant HEK-293 overexpressing human TLR; FIG. 1A
T1 construct: host or cells: recombinant HEK-293
Protocol: Human Embryonic Kidney Cells 293 (HEK-293) were treated with the peptide fragments as disclosed herein.
Samples and controls are tested in duplicate on recombinant HEK-293 cell lines. These cell lines functionally overexpress human TLR as well as a reporter gene which is a secreted alkaline phosphatase (SEAP). The production of this reporter gene is driven by a NF-KB inducible promoter. The level of activation is given as optical density values (OD).
Samples in 100 μg/ml were diluted to a final concentration of 10 μg/ml in the reaction volume. Sample and controls are tested in duplicated wells. BSA is used as negative control.
SEAP reporter is detected as OD value. OD value is subtracted by average non-induced (NI) value. The NI subtracted duplicates are averaged and presented in a histogram. The reagents and materials employed in the instant examples were provided by Invivogen.

zebra fish [3] = assay: Zebra fish fed 6 times per day (autofat animal model), Example 5: body weight and glucose; format: in vivo; conditions: Example 5, normal diet 6 times per day; for level of glucose: Day 13, FIG. 8 lower panel; for body weight at end of experimentation (Day 13) compared to the original level and the GST group: FIG. 8
Protocol: Zebra fish was bred in 25° C. water (pH 6.5-7.5, conductivity 250-750 S·m^−1, NH3<0.25 ppm, NO2<0.25 ppm, NO3<0.5 ppm) and was fed with normal diet bid. (brine shrimp). Each group of experimentation comprises 10 zebra fish (n=10). The gavage feeding of Zebra fish follows the protocol disclosed in Collymore et al. (Journal of Visualized Experiment (2013)). During 13 days of experimentation, the zebra fish were fed once a day with the peptide fragments as disclosed herein in a 1× dose of 0.03 μg/day/fish. The weight of zebra fish was measured respectively on day 0, 1, 3, 6, 9, 12 and 13. In the present example, five groups of zebra fish were administered with the peptides as disclosed herein: The material and method employed in the present example is similar to that of Example 3, which is not repeated herein, except the following difference. In the present example, Zebra fish was bred and fed with normal diet (brine shrimp) 6 times per day and also with the peptide as disclosed herein once per day, to induce an autofat animal model. In the present example, five groups of zebra fish were administered with the peptides as disclosed herein: […]

T1 sequence (O60603 21-784): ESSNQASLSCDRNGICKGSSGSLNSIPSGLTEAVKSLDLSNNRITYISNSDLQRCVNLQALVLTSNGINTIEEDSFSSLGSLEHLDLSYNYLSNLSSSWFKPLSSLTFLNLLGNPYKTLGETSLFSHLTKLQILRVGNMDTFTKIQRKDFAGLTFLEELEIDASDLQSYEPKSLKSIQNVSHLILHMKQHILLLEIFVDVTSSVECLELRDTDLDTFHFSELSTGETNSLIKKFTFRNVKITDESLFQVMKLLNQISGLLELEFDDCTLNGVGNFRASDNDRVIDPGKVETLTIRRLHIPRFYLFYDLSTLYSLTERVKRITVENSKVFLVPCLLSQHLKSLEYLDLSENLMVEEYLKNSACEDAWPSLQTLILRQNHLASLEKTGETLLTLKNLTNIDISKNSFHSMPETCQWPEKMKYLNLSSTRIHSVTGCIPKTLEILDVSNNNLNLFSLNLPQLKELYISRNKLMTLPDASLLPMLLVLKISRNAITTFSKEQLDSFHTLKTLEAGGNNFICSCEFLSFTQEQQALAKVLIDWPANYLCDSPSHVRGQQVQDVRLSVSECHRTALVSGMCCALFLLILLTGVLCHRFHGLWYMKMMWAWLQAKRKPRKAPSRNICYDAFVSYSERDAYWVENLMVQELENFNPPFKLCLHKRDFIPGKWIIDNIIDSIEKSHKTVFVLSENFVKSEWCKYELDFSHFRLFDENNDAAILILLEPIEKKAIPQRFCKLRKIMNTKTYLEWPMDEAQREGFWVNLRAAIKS

Molecule: AMS5: fragment of Amuc_1100*, sequence AINSLVNKLAECGLSKFIKVYRPQL (listed as Akkermansia muciniphila)
- glucose detected in the serum of zebra fish (zebra fish [1]; Day 13, FIG. 3 lower panel): did not reduce
- reduction in body weight at end of experimentation (Day 13) (zebra fish [1]; Day 13 versus day 0, FIG. 3 upper panel): shows statistical significance
- change in body weight of zebra fish (zebra fish [1]; gavage once a day, 13 days, normal diet bid, FIG. 2): significant reduction in body weight
- reduction of body weight in average (zebra fish [1]; gavage once a day, end of experimentation, FIG. 2): approximately 20 mg
- gene expression of IL4 [2]: significantly reduced
- gene expression of IL10 [2]: significantly reduced
- gene expression of MPX [2]: did not
- induction of TLR (SEAP reporter, OD) (human TLR2): strongly and specifically activated; also recorded: capable to activate TLR2; also recorded: shows the activity for induction of TLR

Molecule: AMS5-2: fragment of Amuc_1100*, sequence GLSKFIKVYRPQL (listed as Akkermansia muciniphila)
- level of glucose (zebra fish [3]): reduced
- body weight at end of experimentation (Day 13) compared to the original level and the GST group (zebra fish [3]): further reduced

B1: Amuc_1100*: protein Amuc_1100 of Akkermansia muciniphila which does not include the transmembrane domain, SEQ ID NO.1 (protein, listed as Akkermansia muciniphila)
chain: IVNSKRSELDKKISIAAKEIKSANAAEITPSRSSNEELEKELNRYAKAVGSLETAYKPFLASSALVPTTPTAFQNELKTFRDSLISSCKKKNILITDTSSWLGFQVYSTQAPSVQAASTLGFELKAINSLVNKLAECGLSKFIKVYRPQLPIETPANNPEESDEADQAPWTPMPLEIAFQGDRESVLKAMNAITGMQDYLFTVNSIRIRNERMMPPPIANPAAAKPAAAQPATGAASLTPADEAAAPAAPAIQQVIKPYMGKEQVFVQVSLNLVHFNQPKAQEPSED
- level of glucose (zebra fish [3]): reduced
- body weight at end of experimentation (Day 13) compared to the original level and the GST group (zebra fish [3]): further reduced
